According to PubChem BioAssay AID248 (DTP/NCI, 2004):
Several values for one entry are separate records, joined by “and”; a condition that tells them apart may be missing. Identical values can stand only once. Inconclusive results and toxic doses are left out. Cut-off read from the data, not from the text of the source: active = T/C of 150% or more; inactive = T/C below 125%.

System: L1210 leukemia ip in BDF1 mice, survival T/C
Experiment: NCI In Vivo Anticancer Drug Screen. Data for tumor model L1210 Leukemia (intraperitoneal) in B6D2F1 (BDF1) mice
Conditions: endpoint: mean survival time, higher = longer survival
How it was run: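 In this screen, tumor-bearing mice given compound are compared to those given vehicle, and their survival values are reported as a treated-to-control quotient.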

[1] = dose: 100.0 mg/kg/injection, schedule: Q01DX009 (ip), vehicle: saline with Tween-80
[2] = dose: 100.0 mg/kg/injection, schedule: Q04DX003 (ip), vehicle: saline with Tween-80
[3] = dose: 200.0 mg/kg/injection, schedule: Q01DX009 (ip), vehicle: saline with Tween-80
[4] = dose: 200.0 mg/kg/injection, schedule: Q04DX003 (ip), vehicle: saline with Tween-80
[5] = dose: 400.0 mg/kg/injection, schedule: Q04DX003 (ip), vehicle: saline with Tween-80
[6] = dose: 100.0 mg/kg/injection, schedule: Q04DX002 (ip), vehicle: saline with Tween-80
[7] = dose: 100.0 mg/kg/injection, schedule: Q01DX001 (ip), vehicle: Klucel (hydroxypropylcellulose) (HPC)
[8] = dose: 200.0 mg/kg/injection, schedule: Q01DX001 (ip), vehicle: Klucel (hydroxypropylcellulose) (HPC)
[9] = dose: 400.0 mg/kg/injection, schedule: Q01DX001 (ip), vehicle: Klucel (hydroxypropylcellulose) (HPC)
[10] = dose: 100.0 mg/kg/injection, schedule: Q01DX001 (ip), vehicle: carboxymethylcellulose (CMC)
[11] = dose: 200.0 mg/kg/injection, schedule: Q01DX001 (ip), vehicle: carboxymethylcellulose (CMC)
[12] = dose: 25.0 mg/kg/injection, schedule: Q01DX009 (ip), vehicle: saline
[13] = dose: 25.0 mg/kg/injection, schedule: Q04DX003 (ip), vehicle: saline
[14] = dose: 50.0 mg/kg/injection, schedule: Q04DX003 (ip), vehicle: saline
[15] = dose: 100.0 mg/kg/injection, schedule: Q01DX009 (ip), vehicle: saline
[16] = dose: 200.0 mg/kg/injection, schedule: Q01DX009 (ip), vehicle: saline
[17] = dose: 100.0 mg/kg/injection, schedule: Q01DX009 (ip), vehicle: Klucel (hydroxypropylcellulose) (HPC)
[18] = dose: 100.0 mg/kg/injection, schedule: Q04DX002 (ip), vehicle: Klucel (hydroxypropylcellulose) (HPC)
[19] = dose: 100.0 mg/kg/injection, schedule: Q04DX003 (ip), vehicle: Klucel (hydroxypropylcellulose) (HPC)
[20] = dose: 200.0 mg/kg/injection, schedule: Q04DX002 (ip), vehicle: Klucel (hydroxypropylcellulose) (HPC)
[21] = dose: 200.0 mg/kg/injection, schedule: Q04DX003 (ip), vehicle: Klucel (hydroxypropylcellulose) (HPC)
[22] = dose: 400.0 mg/kg/injection, schedule: Q04DX002 (ip), vehicle: Klucel (hydroxypropylcellulose) (HPC)
[23] = dose: 400.0 mg/kg/injection, schedule: Q04DX003 (ip), vehicle: Klucel (hydroxypropylcellulose) (HPC)
[24] = dose: 100.0 mg/kg/injection, schedule: Q01DX001 (ip), vehicle: saline
[25] = dose: 200.0 mg/kg/injection, schedule: Q01DX001 (ip), vehicle: saline
[26] = dose: 400.0 mg/kg/injection, schedule: Q01DX001 (ip), vehicle: saline

Measured: T/C

O=C1CCCN(Cc2ccccc2)C(=O)N1
inactive: [1] 97 % of control | [2] 103 % of control | [3] 97 % of control | [4] 103 % of control | dose: 400.0 mg/kg/injection, schedule: Q01DX009 (ip), vehicle: saline with Tween-80 97 % of control | [5] 103 % of control

CC1CC(C)(C)C/C1=N/Nc1ccc([N+](=O)[O-])cc1[N+](=O)[O-] (centres undefined)
inactive: [6] 97 % of control | dose: 200.0 mg/kg/injection, schedule: Q04DX002 (ip), vehicle: saline with Tween-80 94 % of control | dose: 400.0 mg/kg/injection, schedule: Q04DX002 (ip), vehicle: saline with Tween-80 87 % of control

O=C(C(=Nc1ccccc1)C(=Nc1ccccc1)C(=O)c1ccccc1)c1ccccc1
inactive: [7] 97 % of control | [8] 98 % of control | [9] 95 % of control

CCC1(O)CC(OC2CC(NC)C(OC3CC(O)C(OC4CC(O)C(O)C(C)O4)C(C)O3)C(C)O2)c2c(cc3c(c2O)C(=O)c2c(O)ccc(O)c2C3=O)C1C(=O)OC (centres undefined)
inactive: dose: 1.6 mg/kg/injection, schedule: Q01DX001 (ip), vehicle: saline 101 % of control | dose: 3.2 mg/kg/injection, schedule: Q01DX001 (ip), vehicle: saline 108 % of control | dose: 6.4 mg/kg/injection, schedule: Q01DX001 (ip), vehicle: saline 124 % of control | dose: 12.8 mg/kg/injection, schedule: Q01DX001 (ip), vehicle: saline 117 % of control | dose: 25.6 mg/kg/injection, schedule: Q01DX001 (ip), vehicle: saline 114 % of control

O=C(N/N=C\c1ccccc1Cl)c1ccco1
inactive: [10] 92 % of control | [11] 86 % of control

C[S+](C)Cc1ccc(C(=O)Oc2ccc([N+](=O)[O-])cc2)cc1
inactive: [12] 100 % of control | [13] 97 % of control | dose: 50.0 mg/kg/injection, schedule: Q01DX009 (ip), vehicle: saline 98 % of control | [14] 100 % of control | [15] 96 % of control and 102 % of control | dose: 100.0 mg/kg/injection, schedule: Q04DX003 (ip), vehicle: saline 100 % of control and 101 % of control | [16] 87 % of control

CCOC(=O)/C=C(\c1ccccc1)c1ccc([N+](=O)[O-])cc1
inactive: [7] 94 % of control | [17] 105 % of control and 90 % of control | [18] 93 % of control and 98 % of control | [19] 107 % of control | [8] 98 % of control | dose: 200.0 mg/kg/injection, schedule: Q01DX009 (ip), vehicle: Klucel (hydroxypropylcellulose) (HPC) 103 % of control and 90 % of control | [20] 100 % of control and 106 % of control | [21] 102 % of control | [9] 102 % of control | dose: 400.0 mg/kg/injection, schedule: Q01DX009 (ip), vehicle: Klucel (hydroxypropylcellulose) (HPC) 106 % of control and 110 % of control | [22] 98 % of control and 100 % of control | [23] 98 % of control

[Cu+2].[NH-]C(CC(N)=O)C(=O)O.[NH-]C(CC(N)=O)C(=O)O (centres undefined)
inactive: dose: 12.5 mg/kg/injection, schedule: Q01DX009 (ip), vehicle: saline 107 % of control | dose: 12.5 mg/kg/injection, schedule: Q04DX003 (ip), vehicle: saline 92 % of control | [12] 98 % of control | [13] 94 % of control | [14] 87 % of control

Cc1ccc(OCC(N)=O)cc1
inactive: dose: 50.0 mg/kg/injection, schedule: Q04DX002 (ip), vehicle: Klucel (hydroxypropylcellulose) (HPC) 100 % of control | [18] 113 % of control | [20] 103 % of control

O=C(/C=C/c1cccc2ccccc12)c1ccc(Cl)cc1
inactive: [19] 105 % of control | [21] 96 % of control | [23] 94 % of control

COS(=O)(=O)c1ccc[n+](C)c1
inactive: dose: 50.0 mg/kg/injection, schedule: Q01DX001 (ip), vehicle: saline 100 % of control | [24] 105 % of control | [25] 98 % of control | [26] 96 % of control

COC(=O)c1[nH]cnc1/N=N/Nc1ccc(Cl)cc1
inactive: dose: 50.0 mg/kg/injection, schedule: Q01DX001 (ip), vehicle: other 103 % of control | dose: 100.0 mg/kg/injection, schedule: Q01DX001 (ip), vehicle: other 105 % of control | dose: 200.0 mg/kg/injection, schedule: Q01DX001 (ip), vehicle: other 105 % of control | dose: 400.0 mg/kg/injection, schedule: Q01DX001 (ip), vehicle: other 94 % of control

O=C(Cn1ccc(=O)[nH]c1=O)Nc1ccc(O)c(C(=O)O)c1
inactive: dose: 50.0 mg/kg/injection, schedule: Q04DX003 (ip), vehicle: Klucel (hydroxypropylcellulose) (HPC) 100 % of control | [19] 107 % of control | [21] 100 % of control

c1ccc(NC2=NCCO2)cc1
inactive: dose: 25.0 mg/kg/injection, schedule: Q04DX002 (ip), vehicle: saline with Tween-80 107 % of control | dose: 50.0 mg/kg/injection, schedule: Q04DX002 (ip), vehicle: saline with Tween-80 90 % of control | [6] 96 % of control

CC(=O)N/N=C(/C)C1CC2CCC1C2 (centres undefined)
inactive: [24] 104 % of control | [25] 106 % of control | [26] 112 % of control

Cc1cc(/C=C\[N+](=O)[O-])c(C)c2c1oc1ccccc12
inactive: [24] 88 % of control | [25] 96 % of control | [26] 88 % of control

O=C(CCc1ccc(O)cc1)c1ccccc1
inactive: [18] 97 % of control | [20] 87 % of control | [22] 94 % of control

COC1C(OC(N)=O)C(O)C(Oc2ccc3c(O)c(N)c(=O)oc3c2C)OC1(C)C (centres undefined)
inactive: dose: 37.5 mg/kg/injection, schedule: Q01DX009 (ip), vehicle: Klucel (hydroxypropylcellulose) (HPC) 98 % of control | dose: 75.0 mg/kg/injection, schedule: Q01DX009 (ip), vehicle: Klucel (hydroxypropylcellulose) (HPC) 101 % of control | dose: 150.0 mg/kg/injection, schedule: Q01DX009 (ip), vehicle: Klucel (hydroxypropylcellulose) (HPC) 104 % of control | dose: 300.0 mg/kg/injection, schedule: Q01DX009 (ip), vehicle: Klucel (hydroxypropylcellulose) (HPC) 101 % of control

COC(=O)C(C(=O)OC)C(c1ccccc1)C(Br)(C(=O)OC)C(=O)OC (centres undefined)
inactive: [1] 102 % of control | [3] 94 % of control

COC(=O)C1C(c2ccc(-c3ccccc3)cc2)N1C(C)C (centres undefined)
inactive: [19] 101 % of control | [21] 95 % of control | [23] 98 % of control

CCSC(SCC)C(SCC)C(OC(=O)c1ccccc1)C(OC(=O)c1ccccc1)C(COC(=O)c1ccccc1)OC(=O)c1ccccc1 (centres undefined)
inactive: [10] 114 % of control | [11] 112 % of control | dose: 400.0 mg/kg/injection, schedule: Q01DX001 (ip), vehicle: carboxymethylcellulose (CMC) 93 % of control

CC(CC(=O)C[N+](=O)[O-])=Nc1ccccc1
inactive: [18] 90 % of control | [20] 104 % of control | [22] 97 % of control

O=C(Nc1nc(Cl)nc(Cl)n1)N1CCOCC1
inactive: dose: 12.5 mg/kg/injection, schedule: Q04DX003 (ip), vehicle: saline with Tween-80 95 % of control | dose: 25.0 mg/kg/injection, schedule: Q01DX009 (ip), vehicle: saline with Tween-80 113 % of control | dose: 25.0 mg/kg/injection, schedule: Q04DX003 (ip), vehicle: saline with Tween-80 101 % of control

COc1cc(Br)c(CCBr)cc1OC
inactive: dose: 25.0 mg/kg/injection, schedule: Q01DX009 (ip), vehicle: Klucel (hydroxypropylcellulose) (HPC) 98 % of control | dose: 50.0 mg/kg/injection, schedule: Q01DX009 (ip), vehicle: Klucel (hydroxypropylcellulose) (HPC) 94 % of control | [17] 100 % of control | [2] 96 % of control | [4] 94 % of control | [5] 104 % of control

C=Cc1cccc[n+]1[O-]
inactive: [15] 115 % of control | [16] 102 % of control | dose: 400.0 mg/kg/injection, schedule: Q01DX009 (ip), vehicle: saline 102 % of control
